Converted amounts (≈) assume the structure as drawn. “And” between values parts separate entries of the source, which are not always exact repeats. Identical values can stand only once. Like-named read-outs stand apart in the source and are kept apart here.
What was measured:
HDAC activity = experiment: H2O2-induced reduction of HDAC activity in PMA-differentiated U937 cells; format: cell-based, human; settings: for restoration of H2O2-reduced HDAC activity (%): test concentration not given, bracketed second value not explained
Procedure, shortened: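 U937 cells PMA-differentiated for 3 days, pretreated with compound for 20 min, then exposed to 200 μM H2O2 for 4 h with Fluor de Lys substrate present. Whole-cell HDAC activity measured fluorimetrically. Data expressed as fold change versus H2O2-only control, mean of four experiments ± SEM.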

IL-8 = experiment: LPS-induced IL-8 release in PMA-differentiated U937 cells (ELISA); format: cell-based, human; settings: for IL-8 inhibition (%): test concentration not given
Procedure, shortened: (§1)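 PMA-differentiated U937 macrophage-like cells were pretreated with compound for 1 hr, then stimulated with LPS (100 ng/ml) for 4 hrs. Released IL-8 and TNFα were quantified by sandwich ELISA. Values are means of three experiments ± SEM.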

TNFα = experiment: LPS-induced TNFα release in PMA-differentiated U937 cells (ELISA); format: cell-based, human; settings: for TNFα inhibition (%): test concentration not given
Procedure, shortened: as §1

MMP9 = experiment: PMA-induced MMP9 expression in U937 cells (gelatin zymography); format: cell-based, human; settings: for MMP9 inhibition (%): test concentration not given, bracketed second value not explained
[1] = format: cell-based
Procedure: The human monocytic cell line U937 and the human type II alveolar epithelial carcinoma cell line A549 were obtained from the American Type Culture Collection (ATCC, Rockville, Md.). PBMCs from COPD patients were obtained in Brompton hospital and separated by AccuSPIN (Sigma-Aldrich, Poole, UK). Cells were cultured in complete growth medium (Sigma-Aldrich) (RPMI 1640 for U937, PBMCs, and Dulbecco's modified essential medium (DMEM) for A549) supplemented with 10% fetal bovine serum (FBS) and 1% L-glutamine at 37° C. in a humidified atmosphere with 5% CO2. U937 were differentiated into an adherent macrophage-like morphology by exposure to PMA (50 or 100 ng/ml) for 48 hrs in complete growth medium. Cell viability was assessed microscopically by trypan blue staining. Cell toxicity was determined by MTT assay as needed. This study was approved by the ethics committee of the Royal Brompton Hospitals, and all subjects gave written informed consent.

K. pneumonia 13883 = experiment: MIC; format: cell-based; settings: in µg/mL
E. coli ATCC 25922 = experiment: MIC; format: cell-based; settings: in µg/mL
[2] = tested on: S. typhimurium ATCC 14028; experiment: MIC; format: cell-based; settings: in µg/mL
S. pneumoniae ATCC 49619 = experiment: MIC; format: cell-based
[3] = tested on: S. aureus ATCC 29213 (MSSA) MLS-S; experiment: MIC; format: cell-based
P. aeruginosa ATCC 27853 = experiment: MIC; format: cell-based
E. faecalis ATCC 29212 = experiment: MIC; format: cell-based
H. influenzae ATCC 49247 = experiment: MIC; format: cell-based
S. pyogenes ATCC 19615 = experiment: MIC; format: cell-based; settings: in µg/mL
[4] = tested on: N. gonorrhoeae ATCC 49226; experiment: MIC; format: cell-based; design: unit not given beside the values
Akt = experiment: H2O2-induced phosphorylation of Akt in PMA-differentiated U937 cells (western blot); format: cell-based, human; settings: PMA-differentiated U937; H2O2 1 mM 30 min
Procedure, shortened: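 PMA-differentiated U937 macrophage-like cells pretreated with compound 20 min, then stimulated with 1 mM H2O2 for 30 min. pAkt measured by western blot densitometry, normalised to total protein and expressed as fold change versus H2O2-only control; mean ± SEM of 3–4 experiments.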

U937 cells = experiment: H2O2-induced steroid insensitivity in U937 cells (dexamethasone IC50 on TNFα-induced IL-8); format: cell-based, human; settings: highest concentration tested (100 μM); H2O2 200 μM
Procedure: Cytokine ELISA. LPS-induced IL-8, TNFα concentrations and TNFα-induced IL-8 concentrations are determined by sandwich ELISA according to the manufacturer's instructions (R&D Systems Europe). IC50 values for dexamethasone on IL-8 production are calculated using the computer program Prism 4.0 (GraphPad Software Inc., San Diego, Calif.) as a marker for steroid sensitivity.
Restoration of steroid sensitivity. U937 cells: U937 are treated with oxidative stress (H2O2, 200 μM or 0.15 dilution CSM (cigarette smoke conditioned medium)) and 4 hours later, stimulated with TNFα (10 ng/ml) in the presence of dexamethasone (10^−11-10^−6M). Supernatant and cells are collected 24 hrs after stimulation and IL-8 is measured by conventional ELISA. As the index of corticosteroid sensitivity, IC50 of dexamethasone is calculated. Test compounds are treated 20 min before oxidative stress treatment.
Effects of compounds on H2O2-induced steroid insensitivity in U937 cells. Cells stimulated with H2O2 (200 μM) overnight are incubated with compounds described herein for 30 min under H2O2 (200 μM) exposure. The cells are treated with dexamethasone (10^−11 to 10^−6 M) for 20 min, followed by the TNFα stimulation overnight. TNFα-induced IL-8 release is evaluated by ELISA and IC50 values for dexamethasone on IL-8 production are calculated using Prism. Data are expressed as fold changes against positive control treated with H2O2 only. Values represent means of four experiments±SEM. H2O2 exposure reduces dexamethasone sensitivity by approximately 4 fold based on calculated IC50 values of TNFα-induced IL-8 production.

A/J mice exposed to LPS = experiment: Anti-inflammatory activity in vivo: A/J mice exposed to LPS intranasally; settings: intranasal, 1 hr before LPS challenge
H. influenzae LC002 = experiment: MIC; format: cell-based
S. pneumoniae 163 (MefA) = experiment: MIC; format: cell-based; settings: in µg/mL
S. pneumoniae 303 (ErmB) = experiment: MIC; format: cell-based
S. aureus MRSA 33591 = experiment: MIC; format: cell-based
[5] = tested on: S. aureus 96:11480 (MLS-I); experiment: MIC; format: cell-based; design: unit not given beside the values
E. faecium ATCC 19434 = experiment: MIC; format: cell-based

Row | Compound | restoration of H2O2-reduced HDAC activity (%) (HDAC activity) | IL-8 inhibition (%) (IL-8) | TNFα inhibition (%) (TNFα) | MMP9 inhibition (%) (MMP9) | Cell Toxicity (% cell death) ([1]; test concentration not given) | MIC K. pneumonia 13883 (K. pneumonia 13883) | MIC E. coli ATCC 25922 (E. coli ATCC 25922) | MIC S. typhimurium ATCC 14028 [2] | MIC S. pneumoniae ATCC 49619 (S. pneumoniae ATCC 49619) | MIC S. aureus ATCC 29213 (MSSA) MLS-S [3] | MIC P. aeruginosa ATCC 27853 (P. aeruginosa ATCC 27853) | MIC E. faecalis ATCC 29212 (E. faecalis ATCC 29212) | MIC H. influenzae ATCC 49247 (H. influenzae ATCC 49247) | MIC S. pyogenes ATCC 19615 (S. pyogenes ATCC 19615) | MIC H. influenzae LC002 (H. influenzae LC002) | MIC S. pneumoniae 163 (MefA) (S. pneumoniae 163 (MefA)) | MIC S. pneumoniae 303 (ErmB) (S. pneumoniae 303 (ErmB)) | MIC S. aureus MRSA 33591 (S. aureus MRSA 33591) | MIC S. aureus 96:11480 (MLS-I) [5] | MIC E. faecium ATCC 19434 (E. faecium ATCC 19434) | other results
1 | CCC1OC(=O)C(C)C(OC2OCC(O)C(NC)C2O)C(C)C(OC2OC(C)CC(N(C)C)C2O)C(C)(O)CC(C)CN(C(C)=O)C(C)C2OC(=O)OC12C (mixture of isomers) [Example 32] | 79 (65) % | 55% | 73% | 40 (49) % | 11% | >64 | >64 | >64 | 32 µg/mL | 32 µg/mL | > 64 µg/mL | 32 µg/mL |  |  |  |  |  |  |  |  | 
2 | CCC1OC(=O)C(C)C(OC2OCC(O)C(N(C)C)C2O)C(C)C(OC2OC(C)CC(N(C)C)C2O)C(C)(O)CC(C)CN(C(C)=O)C(C)C2OC(=O)OC12C (mixture of isomers) [Example 40] | 26% | 93% | 68% | 60 (38) % | 26% | >64 | >64 | >64 | 64 µg/mL | 16 µg/mL | > 64 µg/mL | 32 µg/mL | > 64 µg/mL | >64 |  |  |  |  |  |  | MIC N. gonorrhoeae ATCC 49226 [4]: 8 and 16
3 | CC[C@H]1OC(=O)[C@H](C)[C@@H](O[C@H]2C[C@@](C)(OC)[C@@H](O)[C@H](C)O2)[C@H](C)[C@@H](O[C@@H]2O[C@H](C)C[C@H](N(C)C)[C@H]2O)[C@](C)(O)C[C@@H](C)CN(C)[C@H](C)[C@@H](O)[C@]1(C)O [AZI, azithromycin, reference compound] | 34% | 44% | 31% | 33 (25) % |  |  |  |  |  |  |  |  |  |  |  |  |  |  |  |  | restoration of HDAC activity compared with Example 33 (HDAC activity; PMA-differentiated U937, H2O2 200 μM 4 hrs): only at much higher doses than Example 33; HDAC activity reached compared with untreated controls (HDAC activity; PMA-differentiated U937, H2O2 200 μM, comparators at highest doses tested): only restore HDAC activity to levels comparable to untreated controls; inhibition of Akt phosphorylation compared with Example 33 (Akt): only at much higher concentrations than Example 33; inhibition of LPS-induced IL-8 release compared with Example 33 (IL-8; LPS 100 ng/ml 4 hrs): did not show any inhibition at any concentration tested; inhibition of LPS-induced TNFα release compared with Example 33 (TNFα; LPS 100 ng/ml 4 hrs): did not show any inhibition at any concentration tested; restoration of dexamethasone sensitivity (U937 cells): None of ERY, CLR, or AZI restored dexamethasone sensitivity; Cell Toxicity (% cell death) ([1]; human): −16%; anti-inflammatory action in LPS-exposed A/J mice (A/J mice exposed to LPS): have anti-inflammatory action
4 | CCC1OC(=O)C(C)C(=O)C(C)C(OC2OC(C)CC(N(C)C)C2O)C(C)(OC)CC(C)C(=O)C(C)C2N(CCCCN)C(=O)OC12C (stereo not drawn) [Example 1] | 68 (53) % | 72% | 73% | 55 (43) % | 6% | >64 | >64 | >64 | ≤ 0.125 µg/mL | 8 µg/mL (≈ 11.7 µM) |  |  | > 64 µg/mL | 0.25 and 0.5 | > 64 µg/mL | 0.5 and 1 | > 64 µg/mL | > 64 µg/mL | 8 | 4 µg/mL (≈ 5.85 µM) | concentration at which the H2O2-induced reduction in HDAC activity is restored (HDAC activity; PMA-differentiated U937, pretreated 20 min, H2O2 200 μM 4 hrs): ≥ 100 µM; concentration at which PMA-induced MMP9 up-regulation is inhibited (MMP9; U937, pretreated 1 hr, PMA 50 ng/ml 48 hrs): ≥ 300 µM
5 | CC[C@H]1OC(=O)[C@H](C)C(=O)[C@H](C)[C@@H](O[C@@H]2O[C@H](C)[C@@H](OC(C)=O)[C@H](NC(C)=O)[C@H]2OC(C)=O)[C@@](C)(OC)C[C@@H](C)C(=O)[C@H](C)[C@H]2N(CCCCn3cc(-c4ccccn4)nn3)C(=O)O[C@]12C [Example 23] | −13% | 13% | 76% | 32 (31) % | 9% | >64 |  |  | 4 µg/mL (≈ 4.31 µM) | > 64 µg/mL |  |  | > 64 µg/mL | 16 | > 64 µg/mL | 2 | 16 µg/mL (≈ 17.3 µM) | > 64 µg/mL | >64 | 16 µg/mL (≈ 17.3 µM) | 

Reference: patent US9937194B1, “Compounds and methods for treating inflammatory diseases” (priority 2009, dated 2018)
